Laboratory results published in article PMC8044163, “Vitamin D and lumisterol derivatives can act on liver X receptors (LXRs)” (Scientific Reports, 2021).

Test system: murine dermal fibroblasts
Assay: RNA-Seq of newborn murine dermal fibroblasts
Assay type: cell-based, mouse
Settings: 10^−7 M, 24 h
Method: All animal studies followed guidelines outlined by the NIH Guide for the Care and Use of Laboratory Animals and protocols were approved by the Institutional Animal Care and Use Committee at the NIEHS or the UAB. […] Skin samples from newborn C57BL/6 mice were collected at the NIEHS. Dermal fibroblasts were isolated from the skin of newborn mice, 1–2 day old. Briefly, we followed the protocols described previously. The skin was washed in PBS, cut into smaller pieces and incubated in 2.4 U/ml of dispase II (Roche) overnight at 4 °C. The dermis was separated from the epidermis and incubated in 0.1% collagenase (Roche) at 4 °C overnight. […] Single cell suspension was prepared by pipetting and draining through a cell strainer. After centrifugation, cell pellets were suspended in DMEM medium containing 10% charcoal-stripped fetal bovine serum (cFBS), mouse fibroblasts growth factor (FGF) and 1% antibiotic, and inoculated into tissue culture dishes (Midwest Scientific, TPP). Cells, in early passages, from different mice were pooled together to provide representative samples for experiments. Fibroblasts were cultured in Petri dishes (10 cm in diameter) in DMEM and 10% cFBS and triplicate semi-confluent cultures were treated as described.
Triplicate cultures of murine fibroblasts were used for RNA isolation (RNAeasy Micro kit, Qiagen), the RNA samples were combined for each condition and at least 200 ng of RNA for each sample was used to create libraries for RNA sequencing by BGI Americas Corporation Service (Cambridge, MA)[67]. Quality of RNA and its concentration were determined using Agilent 2100.
The raw sequence FASTQ files were aligned to Gencode’s GRCm38 p4 Release M11 genome using STAR version 2.5.4b (parameters used: –outReadsUnmapped Fastx; –outSAMtype BAM SortedByCoordinate; –outSAMattributes All; –outFilterIntronMotifs RemoveNoncanonicalUnannotated)[69]. The abundance of transcripts was calculated from the alignments using Cufflinks version 2.2.1 (parameters used: –G; –L; –library-type fr-firststrand). Samples were merged using default parameters with Cuffmerge[70],[71]. The differential expression was calculated using Cuffdiff’s default parameters. The raw data have been deposited at the NCBI GEO (GSE145818).

C=C1/C(=C\C=C2/CCC[C@]3(C)[C@@H]([C@H](C)CCCC(C)(C)O)CC[C@@H]23)C[C@@H](O)C[C@@H]1O [1,25(OH)2D3, reference compound]
Adh7 expression level: 1.042
Aqp11 expression level: 0.9562
Arid3b expression level: 1.268
Bicd1 expression level: 0.7304
Btc expression level: 0.9514
Car9 expression level: 3.341
Cbs expression level: 0.4189
Ccl4 expression level: 0
Cd68 expression level: 5.274
Cd200 expression level: 0.3998
Cherp expression level: 35.1454
Clec2g expression level: 0
Cnnm4 expression level: 11.9457
Cox15 expression level: 15.3542
Cpa2 expression level: 0.3127
Ctrl expression level: 0.3422
Dcun1d1 expression level: 6.457
Defb42 expression level: 0.2302
Dtx1 expression level: 0.2518
Ehf expression level: 0.2831
Ercc2 expression level: 13.8618
Erh expression level: 2.728
Fmnl1 expression level: 0.04415
Gys2 expression level: 0
Hist1h2ab expression level: 1.144
Hist1h2bg expression level: 0.5636
Hist1h2bh expression level: 0
Hist1h4c expression level: 0
Isl1 expression level: 0.2249
Krt19 expression level: 14.9744
Larp1b expression level: 2.787
Lhx6 expression level: 3.883
Lsm5 expression level: 0.9896
M1ap expression level: 1.719
Med9os expression level: 0.7826
Nckipsd expression level: 15.4716
Nr3c2 expression level: 0.1558
Nr6a1 expression level: 0.3582
Ntrk3 expression level: 0
Parvg expression level: 0.1595
Pde4dip expression level: 20.1604
Psd4 expression level: 0.7259
Ptpa expression level: 235.847
Ptpn6 expression level: 2.532
Rnu3a expression level: 0
Rpph1 expression level: 0.655
Rsad1 expression level: 1.447
Saa1 expression level: 0.19
Samd12 expression level: 0.7427
Scn8a expression level: 0.3603
Sgca expression level: 0.3791
Slc15a4 expression level: 20.8062
Slc16a5 expression level: 0.1731
Snhg9 expression level: 3.721
St7 expression level: 31.903
Stmn1 expression level: 3.691
Susd1 expression level: 2.151
Syt8 expression level: 1.517
Syt12 expression level: 0.9903
Tldc2 expression level: 0.381
Tnnc2 expression level: 0
Unc5c expression level: 0.3264
Wdr17 expression level: 0.7213
Zbtb18 expression level: 5.623
Zfp618 expression level: 1.668
number of genes downregulated, FC ≥ 2: 566
number of genes upregulated, FC ≥ 2: 601
number of genes solely downregulated (FC ≥ 2): 159 (15%)
number of genes solely upregulated (FC ≥ 2): 322 (21.4%)
